Measurements reported in patent US5808139A (Ligand Pharmaceuticals Incorporated, priority 1994, dated 1998).
“Also recorded” adds a separate entry of the source.

How the values were obtained:
[1] = tested on: endometrium of the uterus; experiment: Decidualization assay in pseudopregnant mice, oil-induced uterine weight gain; format: in vivo; conditions: for Inhibition of decidualization weight gain: vs oil control; for Net Uterine Weight Gain: intraluminal, autopsy Day 7, oil alone control 334.7 +/- 41.0
Method: A successful pregnancy requires not only the effective collision and fusion of egg and spermatozoon, but also the provision of a receptive and supportive uterus. The preparation of the endometrium of the uterus for implantation (i.e. decidualization) starts well before the blastocyst arrives in the uterus.
Psuedopregnant mice (i.e. mated with vasectomized males) were used to establish the assay system. […] At 16 hours of Day 4, a small volume of sesame oil (10 μl) was introduced to the lumen of the right uterine horn to serve as a decidual stimulus. The left horn was left undisturbed to serve as an internal control. Autopsies were performed on Day 7 to assess uterine wet weight gains in the stimulated versus non-stimulated uterine horns.
Each of these compounds was intraluminally administered in an appropriate dosage on Day 4 along with the sesame oil administration.

[2] = tested on: progesterone receptor (T47D cells); experiment: Antagonist assay in T47D (human breast cancer) cells (Tables 1 and 2); format: cell-based; conditions: for Efficacy (% maximal response relative to RU-486), T47D cells: antagonist activity; for IC50: concentration required to reduce the maximal response by 50%, read-out: Potency (IC50), T47D cells
From the text: The functional activities of the cyclocymopol analogues in the human breast cell line, T47D, were also investigated. T47D cells have proven to be a particularly useful model to investigate the molecular actions of sex steroids because they contain endogenous functional receptors for, and respond to, progestins, and their respective antagonists. […] In T47D cells, progestins induce de novo synthesis of a plasma-associated alkaline phosphatase, which has been reported to be similar, if not identical, to the alkaline phosphatase present in the normal breast and human milk. These tests were conducted according to the following illustrative example.
The assay was also run using T47D (human breast cancer) cells.

[3] = tested on: human progesterone receptor altered at the Tau-1 location; experiment: Co-transfection assay in CV-1 cells, progesterone receptor altered at Tau-1, antagonist activity; format: cell-based; conditions: for Efficacy (% maximal response relative to RU-486), CV-1 cells: antagonist activity; for IC50: concentration required to reduce the maximal response by 50%, read-out: Potency (IC50), CV-1 cells
From the text: (§1) This assay is described in further detail in U.S. Pat. Nos. 4,981,784 and 5,071,773, which are incorporated herein by reference. The co-transfection assay provides a method for identifying functional ligands (either agonists which mimic, or antagonists which inhibit, the effect of hormones) for ligand-responsive receptor proteins.
(§2) The co-transfection assay provides a mechanism to evaluate ability of a compound to function as an agonist or antagonist of the activity modulated by an intracellular receptor. The co-transfection assay mimics an in vivo system in the laboratory. In the co-transfection assay, a cloned gene for an intracellular receptor is introduced by transfection (a procedure to induce cells to take up foreign genes) into a background cell substantially devoid of endogenous intracellular receptors. This introduced gene directs the recipient cells to make the intracellular receptor protein. A second gene is also introduced (co-transfected) into the same cells in conjunction with the intracellular receptor gene. This second gene functions as a reporter for the transcription-modulating activity of the target intracellular receptor. The reporter acts as a surrogate for the products normally expressed by a gene under control of the target receptor and its natural hormone.
(§3) A preferred reporter gene is one which expresses the firefly enzyme luciferase. The co-transfection assay can detect small molecule agonists or antagonists of target intracellular receptors. Exposing the cells to an agonist ligand increases reporter activity in the transfected cells that can be conveniently measured, reflecting ligand-dependent, intracellular receptor-mediated increases in reporter transcription. To detect antagonists, the co-transfection assay is carried out in the presence of a constant concentration of an agonist known to induce a defined reporter signal. Increasing concentrations of a test antagonist will decrease the reporter signal. The co-transfection assay is therefore useful to detect both agonists and antagonists of specific intracellular receptors. It determines not only whether a compound interacts with a particular intracellular receptor, but also whether this interaction mimics (agonizes) or blocks (antagonizes) the effects of the natural regulatory molecules on target gene expression.
(§4) Co-transfected cells are exposed to a medium to which is added the potential ligand that is being evaluated. If the candidate ligand diffuses into the cell and binds to the receptor and the resulting complex functions as an agonist, it binds to the co-transfected reporter gene and initiates transcription. When that gene is one that expresses, for example, luciferase, luciferase is produced which catalyzes a light-emitting reaction with its substrate luciferin. Thus, after cell lysis and the introduction of luciferin, the amount of light produced relative to the concentration of candidate ligand used in the assay provides a measure of the potency and efficacy of the compound tested. Antagonist activity is evaluated by adding the candidate ligand and a known agonist to the co-transfected cells.
(§5) The receptor cDNA was introduced in a mammalian expression vector under the control of the Rous Sarcoma virus LTR. […] A reporter vector was also transfected, containing a firefly luciferase gene under the control of the hormone-responsive promoter. […] The level of luciferase activity was then measured in cell extracts. Light emission is directly proportional to the effectiveness of the hormone-receptor complex in activating gene expression.
A total of three replicates per concentration point were tested for each compound, and the EC50 was calculated for each positive response. Both agonist and antagonist activity for each test compound was determined in parallel. […]

[4] = biological target: T1, human progesterone receptor (Homo sapiens, UniProt P06401); experiment: Progesterone receptor binding (displacement of 3H-progesterone, whole cell extract of transfected CV-1 cells); parameters: expressed in transfected cells; host or cells: CV-1 cells (calcium phosphate transfection), whole cell extract
T1 sequence (P06401 1-933): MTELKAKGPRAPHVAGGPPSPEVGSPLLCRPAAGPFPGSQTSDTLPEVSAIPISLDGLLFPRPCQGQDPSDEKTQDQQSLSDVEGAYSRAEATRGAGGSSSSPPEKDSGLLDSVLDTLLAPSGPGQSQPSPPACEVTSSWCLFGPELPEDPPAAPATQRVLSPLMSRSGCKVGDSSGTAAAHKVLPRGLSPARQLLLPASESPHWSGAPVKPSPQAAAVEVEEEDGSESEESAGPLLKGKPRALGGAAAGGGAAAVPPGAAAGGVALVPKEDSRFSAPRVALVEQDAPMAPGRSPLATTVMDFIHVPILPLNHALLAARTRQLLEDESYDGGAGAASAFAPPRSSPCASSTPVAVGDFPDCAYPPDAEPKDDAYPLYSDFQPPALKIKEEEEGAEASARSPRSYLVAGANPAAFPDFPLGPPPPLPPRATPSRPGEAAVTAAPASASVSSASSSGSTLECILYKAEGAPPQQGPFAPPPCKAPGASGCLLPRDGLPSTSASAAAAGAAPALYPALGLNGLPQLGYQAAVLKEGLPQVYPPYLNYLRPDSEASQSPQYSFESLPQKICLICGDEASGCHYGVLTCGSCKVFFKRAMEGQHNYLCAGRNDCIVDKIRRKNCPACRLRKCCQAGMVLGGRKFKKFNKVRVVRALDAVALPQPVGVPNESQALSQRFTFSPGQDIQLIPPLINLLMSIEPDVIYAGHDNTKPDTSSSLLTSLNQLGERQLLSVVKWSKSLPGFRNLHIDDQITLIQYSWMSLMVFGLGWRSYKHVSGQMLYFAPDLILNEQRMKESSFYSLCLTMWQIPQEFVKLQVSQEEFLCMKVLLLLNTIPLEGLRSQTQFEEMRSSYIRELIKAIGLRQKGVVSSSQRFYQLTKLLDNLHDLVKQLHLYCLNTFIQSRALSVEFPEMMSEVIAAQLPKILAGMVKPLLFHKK
Method: These tests were conducted according to the following illustrative example.
CO2 for 40 hours prior to harvest.
After incubation, cells were harvested and washed in phosphate buffered saline. Whole cell receptor extract was prepared by homogenizing the harvested cells in Tris-HCl buffer, pH=7.4, containing 30% glycerol, 1 mM EDTA, 12 mM monothioglycerol, 1 mM PMSF, and 0.5M potassium chloride. The homogenate was incubated at 4° C. for 60 min with resuspension every 10 min. The suspension was centrifuged (105,000×g, 60 min) and the supernatant was collected and flash frozen in liquid nitrogen and stored frozen at -70° C.
To a […] final volume incubation mixture, […] of 7.5% (w/v) dextran-coated charcoal suspension in gelatin phosphate buffer was added. The mixture was vortexed and incubated at 4° C. for 10 min and then centrifuged at 3000 rpm for 10 min. The amount of bound tritiated hormone was determined by liquid scintillation spectrophotometry of an aliquot of the supernatant. […]

T47D cells = experiment: Alkaline phosphatase activity in T47D cells (induction and its inhibition); format: cell-based, human; conditions: ligand alone; three days
From the text: The functional activities of the cyclocymopol analogues in the human breast cell line, T47D, were also investigated. T47D cells have proven to be a particularly useful model to investigate the molecular actions of sex steroids because they contain endogenous functional receptors for, and respond to, progestins, and their respective antagonists. Moreover, these cells contain exceptionally high titers of progesterone receptors and are exquisitely sensitive to the actions of progestins in a manner quite similar to their actions in normal and neoplastic mammary epithelial cells. In T47D cells, progestins induce de novo synthesis of a plasma-associated alkaline phosphatase, which has been reported to be similar, if not identical, to the alkaline phosphatase present in the normal breast and human milk. These tests were conducted according to the following illustrative example. […] For routine induction of alkaline phosphatase, cells were treated for three days with two media changes and harvested as described below. […] Nuclei were sedimented at 2500 rpm, and the supernatant was saved as cytosol. The protein content of the cytosol was assayed by the method of Bradford. Alkaline phosphatase activity was determined by incubating one volume of cell extract with three volumes of 1 mg/ml p-nitrophenol phosphate prepared in DEAM (1M diethanolamine, pH=9, containing 2 mM magnesium chloride) at room temperature for 20 min. At the end of the incubation time, the reaction was stopped with an equal volume of 1N NaOH. Ten standards of p-nitrophenol were prepared in DEAM buffer and absorbance was read at 405 nm. Alkaline phosphatase activity is expressed as pmol p-nitrophenol formed/min/mg protein.

[5] = biological target: T1, human progesterone receptor; experiment: Co-transfection (cis-trans) assay in CV-1 cells, agonist and antagonist mode; format: cell-based; parameters: expressed in transfected cells; host or cells: CV-1 cells (calcium phosphate transfection), whole cell extract; conditions: antagonist mode with 10^-8 M progesterone
From the text: as §1, §2, §3, §4, §5
A total of three replicates per concentration point were tested for each compound, and the EC50 was calculated for each positive response. Both agonist and antagonist activity for each test compound was determined in parallel.

Compound	IC50 [2]	IC50 [3]	Kd [4]	Progesterone receptor agonist/antagonist activity [5]	Inhibition of decidualization weight gain ([1]; 5 mg)	Net Uterine Weight Gain ([1]; 5 mg)	Efficacy (% maximal response relative to RU-486), T47D cells [2]	Efficacy (% maximal response relative to RU-486), CV-1 cells [3]	Agonist activity, alkaline phosphatase induction (T47D cells)	Inhibition of decidualization weight gain ([1]; 0.1 mg)	Net Uterine Weight Gain ([1]; 0.1 mg)
C=C1CCCC(C)(C)C1Cc1cc(OC)c(Br)cc1O (stereo in doubt) [J, (3R)-1-Debromocyclocymopol monomethyl ether]					~91%	30.7 ± 16.2 mg	85%	95%			
C=C1C=C(C)CC(C)(C)C1Cc1ccc([N+](=O)[O-])cc1 (stereo not drawn) [I, 1-Methylidene-6-(4'-nitrophenyl)methyl-3,5,5-trimethylcyclohex-2-ene]	125 nM	700 nM	55 nM		approximately 81%	63.9 ± 20.9 mg	75%	95%			
C=C1CC[C@@H](Br)C(C)(C)[C@@H]1Cc1cc(OC)c(C=O)cc1O [NN, (3R)-4'-Formylcyclocymopol monomethyl ether]	1800 nM	2100 nM	409 nM				83%	31%			
C=C1CCCC(C)(C)C1Cc1ccc(Br)cc1 (stereo not drawn) [O, 1-Methylidene-2-(4'-bromophenyl)methyl-3,3-dimethylcyclohexane]	850 nM	1000 nM	445 nM				85%	90%			
C=C1CCC(C)(C)C1Cc1cc(OC)c(Br)cc1O (stereo not drawn) [P, 1-Methylidene-2-(2'-hydroxy-4'-bromo-5'-methoxyphenyl)methyl-3,3-dimethylcyclo-pentane]	275 nM	1200 nM	440 nM				60%	100%			
C=C1CCCCC1Cc1ccc([N+](=O)[O-])cc1 (stereo not drawn) [Q, 1-Methylidene-2-(4'-nitrophenyl)methylcyclohexane]	225 nM	1200 nM	245 nM				65%	95%			
CN(C)c1ccc([C@H]2C[C@]3(C)[C@@H](CC[C@]3(O)CCCO)[C@@H]3CCC4=CC(=O)CCC4=C32)cc1 [ZK299, reference compound]										approximately 88%	41.1 ± 21.0 mg

Continued, in another order:

IC50 [2]	IC50 [3]	Kd [4]	Progesterone receptor agonist/antagonist activity [5]	Compound	Inhibition of decidualization weight gain ([1]; 5 mg)	Net Uterine Weight Gain ([1]; 5 mg)	Efficacy (% maximal response relative to RU-486), T47D cells [2]	Efficacy (% maximal response relative to RU-486), CV-1 cells [3]	Agonist activity, alkaline phosphatase induction (T47D cells)	Inhibition of decidualization weight gain ([1]; 0.1 mg)	Net Uterine Weight Gain ([1]; 0.1 mg)
			progesterone receptor agonist activity	C=C1CC[C@@H](Br)C(C)(C)[C@H]1Cc1cc(OC)c(Br)cc1OC(C)=O [SO-51]					functional agonists; also recorded: increased the activity of intracellular alkaline phosphatase in a concentration-dependent manner		
300 nM	1580 nM	185 nM		C=C1CC[C@@H](Br)C(C)(C)[C@@H]1Cc1cc(OC)c(Br)cc1OC(=O)OC [T, (3R)-Cyclocymopol monomethyl ether, methyl carbonate]			90%	90%			
325 nM	1800 nM	95 nM		C=C1CC[C@@H](Br)C(C)(C)[C@@H]1Cc1cc(OC)c(I)cc1O [V, (3R)-4'-Iodocyclocymopol monomethyl ether]			85%	95%			
